The values that follow come from patent publication US20230312587A1, “PTERIDINONE COMPOUNDS AND USES THEREOF” (Vertex Pharmaceutical Incorporated, priority 2018, published 2023).

Structures are written as SMILES. Like-named read-outs stand apart in the source and are kept apart here.

Test [1] deals with Colo205-TCF/LEF-Luciferase (Luc) tumor. Nature of the test: In vivo inhibition of TCF/LEF reporter activity in Colo-205 tumors. Set-up: concentration or dose not given beside the values. To be noted: TCF/LEF luciferase reporter in Colo-205 tumors, nu/nu mice, oral gavage. The essentials:
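Female nu/nu mice carried subcutaneous Colo205-TCF/LEF-luciferase tumours (200–500 mm^3), n=4 per group. Compound was given by oral gavage in 1:3:5:1 EtOH:DMSO:PEG-400:H2O at 10 ml/kg, with vehicle as control. Luciferase activity in tumour lysates (Steady-Glo) was normalised to BCA protein.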
(A reporter such as luciferase makes a cellular process visible.)

Test [2] concerns Hek293 empty vector. Briefly: In vitro cell viability (CellTiter-Glo), Hek293 empty vector. It is filed as cell-based. The essentials:
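HEK293 cells stably transduced with empty pCLPCX retroviral vector (puromycin-selected), seeded 1,000 cells/well, treated next day with compounds at various concentrations. Viability read by CellTiter-Glo luminescence 96 hrs after compound addition; IC50 derived.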

[3] abbreviates: Homo sapiens, HEK293, read-out: Hek293 empty vector viability.
Where [4] appears, read: Hek293 empty vector, read-out: Hek293 empty vector viability.

As to `CCN1c2nc(NCc3cnn(Cc4ccc(C(F)(F)F)nc4)c3)nc(C)c2NC(=O)[C@@H]1C` [Compound 395, (7S)-8-Ethyl-4,7-dimethyl-2-(((1-((6-(trifluoromethyl)pyridin-3-yl)methyl)-1H-pyrazol-4-yl)methyl)amino)-7,8-dihydropteridin-6(5H)-one], the “Percent Remaining Activity at 8 hrs after Dosing” value (“Percent Remaining Activity” for short) in test [1] is 19%. Also, the IC50 in test [2] (setting [3]) is ≥ 3 µM.
The corresponding values for `Cc1nc(NCc2cnn(Cc3ccc(C(F)(F)F)nc3C(C)(C)O)c2)nc2c1NC(=O)[C@H](C)N2C` [Compound 416, (7S)-2-(((1-((2-(2-hydroxypropan-2-yl)-6-(trifluoromethyl)pyridin-3-yl)methyl)-1H-pyrazol-4-yl)methyl)amino)-4,7,8-trimethyl-7,8-dihydropteridin-6(5H)-one] are 22% and ≥ 3 µM.
Take `Cc1nc(N[C@H]2C[C@@H](COc3cc(F)c(F)c(F)c3)C2)nc2c1NC(=O)[C@H](C)N2C` [Compound 257, (7S)-4,7,8-Trimethyl-2-((cis-3-((3,4,5-trifluorophenoxy)methyl)cyclobutyl)-amino)-7,8-dihydropteridin-6(5H)-one]: the “Percent Remaining Activity” value in test [1] came to 30%. Moreover, the IC50 in test [2] (setting [3]) was ≥ 3 µM.
As to `Cc1nc(NCc2cnn(Cc3ccc(C(F)(F)F)nc3)c2)nc2c1NC(=O)[C@H](C)N2C` [Compound 136, (7S)-4,7,8-trimethyl-2-(((1-((6-(trifluoromethyl)pyridin-3-yl)methyl)-111-pyrazol-4-yl)methyl)amino)-7,8-dihydropteridin-6(5H)-one], the “Percent Remaining Activity” value in test [1] is recorded as 24%. The IC50 in test [2] (setting [4]) was ≥ 3 µM; in test [2] (cell viability, Hek293 empty vector, read-out: IC50), > 27 µM; in test [2] (cell viability, Hek293 empty vector, read-out: IC50 class), ≥ 3 µM.
For the molecule `Cc1nc(NCc2cnn([C@@H]3C[C@@H]3c3ccc(F)cc3)c2)nc2c1NC(=O)[C@H](C)N2C` [Compound 154, (7S)-2-(((1-((1R,2R)-2-(4-fluorophenyl)cyclopropyl)-1H-pyrazol-4-yl)methyl)amino)-4,7,8-trimethyl-7,8-dihydropteridin-6(5H)-one], the “Percent Remaining Activity” value in test [1] worked out at 24%. In addition, in test [2] (setting [3]), the IC50 was ≥ 3 µM.
The corresponding values for `Cc1nc(NCc2cnn(Cc3ccc(C(F)(F)F)nc3)c2)nc2c1NC(=O)[C@H](C)N2C(C)C` [Compound 385, (7S)-8-isopropyl-4,7-dimethyl-2-(((1-((6-(trifluoromethyl)pyridin-3-yl)methyl)-1H-pyrazol-4-yl)methyl)amino)-7,8-dihydropteridin-6(5H)-one] are 25% and ≥ 3 µM.
With `Cc1nc(N[C@H]2CC[C@H](Oc3ccc(C(F)(F)F)nc3)C2)nc2c1NC(=O)[C@H](C)N2C` (single isomer, unassigned) [Compound 377], the “Percent Remaining Activity” value in test [1] turned out to be 33%. For the same molecule, in test [2] (setting [4]), the IC50 was ≥ 3 µM.
Take `CC[C@H]1C(=O)Nc2c(C)nc(NCc3cnn(Cc4ccc(C(F)(F)F)nc4)c3)nc2N1C` [Compound 186, (7S)-7-ethyl-4,8-dimethyl-2-(((1-((6-(trifluoromethyl)pyridin-3-yl)methyl)-1H-pyrazol-4-yl)methyl)amino)-7,8-dihydropteridin-6(5H)-one]: the “Percent Remaining Activity” value in test [1] was 23%. The IC50 in test [2] (setting [3]) was ≥ 3 µM.
The corresponding values for `Cc1nc(NCc2cnn(Cc3ccc(F)cc3)c2)nc2c1NC(=O)[C@H](C)N2C` [Compound 4, (7S)-2-(((1-(4-fluorobenzyl)-1H-pyrazol-4-yl)methyl)amino)-4,7,8-trimethyl-7,8-dihydropteridin-6(5H)-one] are 23% and ≥ 3 µM.
The corresponding values for `Cc1nc(NCc2cnn(Cc3ccc(C(F)(F)F)nc3[C@@H](C)O)c2)nc2c1NC(=O)[C@H](C)N2C` (single isomer, unassigned) [Compound 420] are 28% and ≥ 3 µM.
The corresponding values for `Cc1nc(NCc2cnn([C@@H](C)c3ccc(C(F)(F)F)nc3)c2)nc2c1NC(=O)[C@H](C)N2C` [Compound 174, (7S)-4,7,8-Trimethyl-2-(((1-((S)-1-(6-(trifluoromethyl)pyridin-3-yl)ethyl)-1H-pyrazol-4-yl)methyl)amino)-7,8-dihydropteridin-6(5H)-one] are 22% and ≥ 3 µM.
For `Cc1nc(N[C@H]2C[C@H](Oc3ccc(C(F)(F)F)nc3)C2)nc2c1NC(=O)[C@H](C)N2C` [Compound 324, (7S)-4,7,8-trimethyl-2-((trans-3-((6-(trifluoromethyl)pyridin-3-yl)oxy)cyclobutyl)amino)-7,8-dihydropteridin-6(5H)-one], the “Percent Remaining Activity” value in test [1] is recorded as 16%. For the same molecule, the IC50 in test [2] (setting [3]) was ≥ 3 µM.
